# Test results from ChEMBL document CHEMBL1128044, “Dichotomin A, a new cyclic hexapeptide from Stellaria dichotoma L. var. lanceolata Bge” (Bioorg Med Chem Lett, 1995).
# Residues, ends and D or L forms follow the SMILES beside them.
# System: P388
# Assay: Tested for inhibitory activity against p-388 lymphocytic leukemia cells
# Assay type: functional, cell-based
# Conditions: Mus musculus
smiles,measurement,value
"CC(C)C[C@@H]1NC(=O)[C@H](Cc2ccccc2)NC(=O)[C@H]([C@@H](C)O)NC(=O)CNC(=O)[C@H](C(C)C)NC(=O)[C@H](Cc2ccc(O)cc2)NC1=O (HELM PEPTIDE1{F.L.Y.V.G.T}$PEPTIDE1,PEPTIDE1,1:R1-6:R2$$$V2.0)",IC50,2.5 µg/mL
